Experimental findings from ChEMBL document CHEMBL4251747 (Bioorg Med Chem, 2018) are described below.

The target in data set [1] is T1, Aurora kinase A (Homo sapiens, UniProt O14965).
T1 sequence (O14965 whole entry): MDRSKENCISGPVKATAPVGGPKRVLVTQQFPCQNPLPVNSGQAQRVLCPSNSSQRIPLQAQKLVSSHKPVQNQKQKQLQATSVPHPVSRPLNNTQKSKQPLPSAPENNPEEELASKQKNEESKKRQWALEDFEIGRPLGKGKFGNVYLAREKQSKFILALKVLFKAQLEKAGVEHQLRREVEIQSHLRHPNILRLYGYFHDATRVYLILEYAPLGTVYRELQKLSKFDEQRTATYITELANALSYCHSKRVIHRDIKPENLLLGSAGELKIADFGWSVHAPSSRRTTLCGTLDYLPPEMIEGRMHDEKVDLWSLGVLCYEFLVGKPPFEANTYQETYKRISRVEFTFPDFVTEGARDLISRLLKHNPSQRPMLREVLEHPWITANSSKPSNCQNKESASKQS
The experiment in a line: Inhibition of full length N-terminal His-tagged Aurora A (unknown origin) using fluorescence-labeled FL-Peptide 21 as substrate after 60 mins in presence of ATP by fluorescence assay based Cheng-Prusoff equation analysis.

Data set [2] addresses T2, Dual specificity protein kinase TTK (Homo sapiens, UniProt P33981).
T2 sequence (P33981 whole entry): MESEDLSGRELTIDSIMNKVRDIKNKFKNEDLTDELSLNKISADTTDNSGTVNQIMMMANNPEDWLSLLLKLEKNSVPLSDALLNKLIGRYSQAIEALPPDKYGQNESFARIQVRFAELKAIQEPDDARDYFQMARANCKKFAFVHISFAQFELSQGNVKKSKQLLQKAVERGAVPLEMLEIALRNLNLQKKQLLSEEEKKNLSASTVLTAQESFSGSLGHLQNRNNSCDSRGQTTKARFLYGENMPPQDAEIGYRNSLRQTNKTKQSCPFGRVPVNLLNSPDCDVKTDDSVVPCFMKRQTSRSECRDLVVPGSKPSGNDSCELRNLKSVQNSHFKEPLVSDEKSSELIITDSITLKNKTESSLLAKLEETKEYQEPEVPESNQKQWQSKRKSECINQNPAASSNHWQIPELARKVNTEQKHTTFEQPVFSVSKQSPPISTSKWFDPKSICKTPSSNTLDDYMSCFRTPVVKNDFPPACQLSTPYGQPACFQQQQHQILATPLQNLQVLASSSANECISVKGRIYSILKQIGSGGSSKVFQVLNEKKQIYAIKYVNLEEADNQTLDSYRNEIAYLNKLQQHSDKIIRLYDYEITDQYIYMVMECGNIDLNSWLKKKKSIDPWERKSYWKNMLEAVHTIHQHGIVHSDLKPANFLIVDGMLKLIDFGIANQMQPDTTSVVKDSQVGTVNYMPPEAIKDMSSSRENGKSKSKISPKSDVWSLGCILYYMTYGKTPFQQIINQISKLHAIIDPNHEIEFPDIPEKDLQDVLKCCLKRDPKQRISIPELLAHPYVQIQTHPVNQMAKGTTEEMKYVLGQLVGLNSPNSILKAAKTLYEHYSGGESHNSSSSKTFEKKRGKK
The experiment in a line: Inhibition of full length human Mps1 using fluorescence-labeled H236 peptide as substrate after 60 to 90 mins in presence of ATP by fluorescence assay based Cheng-Prusoff equation analysis.

Data set [3] concerns the target Aurora kinase B/Inner centromere protein (Homo sapiens, UniProt Q96GD4). The experiment in a line: Inhibition of human full length N-terminal GST-tagged Aurora B (1 to 344 end residues)/His-tagged INCENP (803 to 918 end residues) expressed in baculovirus expression system using fluorescence-labeled FL-Peptide 21 as substrate after 60 mins in presence of ATP by fluorescence assay based Cheng-Prusoff equation analysis.

Data set [4] in a line: Solubility of the compound. Format: physicochemical.

Aurora kinase B/Inner centromere protein, sequence (Q96GD4 whole entry): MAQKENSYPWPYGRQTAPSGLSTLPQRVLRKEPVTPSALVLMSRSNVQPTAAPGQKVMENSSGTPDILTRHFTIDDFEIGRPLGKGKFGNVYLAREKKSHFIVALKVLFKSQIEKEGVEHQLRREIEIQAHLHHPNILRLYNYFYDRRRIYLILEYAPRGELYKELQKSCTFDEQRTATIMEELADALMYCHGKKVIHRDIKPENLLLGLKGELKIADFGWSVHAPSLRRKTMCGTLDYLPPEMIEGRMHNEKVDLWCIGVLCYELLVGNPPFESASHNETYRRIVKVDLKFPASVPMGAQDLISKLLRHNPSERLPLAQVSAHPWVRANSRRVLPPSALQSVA
Aurora kinase B/Inner centromere protein, sequence (Q9NQS7 whole entry, further chain): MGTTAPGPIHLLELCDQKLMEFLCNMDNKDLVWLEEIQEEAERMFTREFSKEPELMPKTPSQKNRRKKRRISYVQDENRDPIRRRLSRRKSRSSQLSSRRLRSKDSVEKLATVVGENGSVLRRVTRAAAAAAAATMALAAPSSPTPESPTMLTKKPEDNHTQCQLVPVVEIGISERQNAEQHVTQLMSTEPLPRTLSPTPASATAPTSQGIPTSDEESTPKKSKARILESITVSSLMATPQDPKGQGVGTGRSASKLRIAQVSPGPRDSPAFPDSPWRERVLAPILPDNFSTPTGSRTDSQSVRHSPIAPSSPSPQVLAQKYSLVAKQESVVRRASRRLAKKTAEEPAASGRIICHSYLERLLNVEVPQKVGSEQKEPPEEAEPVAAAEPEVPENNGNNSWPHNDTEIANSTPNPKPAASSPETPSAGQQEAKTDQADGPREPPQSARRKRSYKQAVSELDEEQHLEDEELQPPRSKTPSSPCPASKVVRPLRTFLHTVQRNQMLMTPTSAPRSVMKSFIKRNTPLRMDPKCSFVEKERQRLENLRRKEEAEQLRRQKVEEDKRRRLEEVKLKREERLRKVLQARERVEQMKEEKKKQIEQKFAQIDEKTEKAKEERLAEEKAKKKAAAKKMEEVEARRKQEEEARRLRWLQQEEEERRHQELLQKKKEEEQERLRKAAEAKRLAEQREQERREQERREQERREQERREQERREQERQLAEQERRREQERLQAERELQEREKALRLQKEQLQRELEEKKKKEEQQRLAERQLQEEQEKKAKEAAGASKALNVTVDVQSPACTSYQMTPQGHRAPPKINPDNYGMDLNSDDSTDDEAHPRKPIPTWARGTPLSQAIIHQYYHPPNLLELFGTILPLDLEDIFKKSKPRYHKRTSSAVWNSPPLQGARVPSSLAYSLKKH

As for `Cn1cc(-c2ccncc2)cc(N)c1=O`, the values for the inhibitory constant (Ki) in data set [1], in data set [2] and in data set [3] were 99.5 µM, 236 µM and 103 µM, respectively.
In the case of `CN1CCN(c2ccc(C(=O)Nc3cc(-c4ccncc4)c[nH]c3=O)cc2)CC1`, the solubility result in data set [4] is listed as “Insoluble”.
The same measure, in the same setting: under `O=C(Nc1cc(-c2ccncc2)c[nH]c1=O)c1ccccc1` stands “Insoluble”.
On to `CN(C)Cc1ccc(-c2c[nH]c(=O)c(N)c2)cc1`, for which the inhibition constant (Ki) (as a rule, the dissociation constant of the complex between target and ligand, obtained from inhibition or displacement) in data set [1] is more than 100 µM; in data set [2] it was 367 µM; in data set [3], 12.9 µM.
`O=C(Nc1cc(-c2ccnc(NC3CC3)n2)c[nH]c1=O)c1ccccc1`: in data set [4], the solubility entry is “Insoluble”.
